Assay results as given in ChEMBL document CHEMBL1139524, “Decoys for docking” (J Med Chem, 2005).
pKd, pKi: −log10 of the molar value.

The compounds below were run against Endolysin (Enterobacteria phage T4, UniProt P00720, L99A).
Design: species or system Tequatrovirus T4

| SMILES | pKd |
| --- | --- |
| CCc1ccc(C)cc1 | 3.92 |
| CCCc1ccccc1 | 4.74 |
| CCc1cccc(C)c1 | 3.70 |
| CCc1ccccc1C | 3.30 |
| c1ccc2occc2c1 [BENZOFURAN] | 3.95 |
| c1ccc2sccc2c1 [BENZOTHIOPHENE] | 4.13 |
| C1=Cc2ccccc2C1 [INDENE] | 3.71 |
| Cc1cccc(C)c1 [M-XYLENE] | 3.44 |

Each compound was assayed against Endolysin (Enterobacteria phage T4, UniProt P00720, L99A/M102Q) (assay: Dissociation constant against T4 lysozyme mutant L99A/M102Q).
Design: species or system Tequatrovirus T4

| SMILES | pKd |
| --- | --- |
| Nc1ccccc1F | 4.00 |
| Oc1cccc(Cl)c1 | 4.25 |
| Cc1cc[nH]c1 | 3.80 |

What follows are compounds tested against T1, Beta-lactamase (Escherichia coli K-12, UniProt P00811) (assay: Apparent inhibitory constant against beta-lactamase AmpC from Escherichia coli).
T1 sequence (P00811 whole entry): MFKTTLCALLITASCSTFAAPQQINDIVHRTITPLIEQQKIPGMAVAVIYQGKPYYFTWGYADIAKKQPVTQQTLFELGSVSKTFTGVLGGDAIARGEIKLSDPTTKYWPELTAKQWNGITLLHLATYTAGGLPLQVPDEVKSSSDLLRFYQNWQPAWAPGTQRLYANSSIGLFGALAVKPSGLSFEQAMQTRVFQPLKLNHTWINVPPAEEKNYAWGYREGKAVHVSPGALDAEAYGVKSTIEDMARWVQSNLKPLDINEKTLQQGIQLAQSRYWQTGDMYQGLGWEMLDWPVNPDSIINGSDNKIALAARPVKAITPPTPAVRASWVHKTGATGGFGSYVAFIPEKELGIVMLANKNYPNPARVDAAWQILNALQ

| pKi | SMILES |
| --- | --- |
| 4.03 | NS(=O)(=O)c1ccc(NS(=O)(=O)c2ccsc2C(=O)O)cc1 |

What follows are compounds tested against T1, Beta-lactamase (assay: Inhibitory constant against beta-lactamase AmpC from Escherichia coli).

| pKi | SMILES |
| --- | --- |
| 4.59 | O=C(O)c1sccc1S(=O)(=O)Nc1ccc(Cl)cc1 |
